Laboratory results from patent US20090221653A1, “7-(2-amino-1-hydroxy-ethyl)-4-hydroxybenzothiazol-2(3H)-one-derivatives as beta2 adrenoreceptor agonists” (AstraZeneca AB, priority 2005, published 2009).
Structures can show the parent of a compound that is named as a salt. Where two headings read alike, the source gives them in different places.

What was measured:
Adrenergic β2 = biological target: T1, Adrenergic β2 (Homo sapiens, UniProt P07550); assay: Alternative Adrenergic β2 Mediated cAMP Production in H292 cells (AlphaScreen cAMP detection); type: cell-based; conditions: for EC50: cAMP, test compounds incubated 60 minutes, 300 μM rolipram, read-out: β2 pEC50 (converted); for β2 Int Act: fraction relative to the maximum activity determined for formoterol, 60 minutes incubation
T1 construct: endogenous in cells; host or cells: H292 cells
Experimental: H292 cells were grown in 225 cm2 flasks incubator at 37° C., 5% CO2 in RPMI medium containing, 10% (v/v) FBS (foetal bovine serum) and 2 mM L-glutamine.
Adherent H292 cells were removed from tissue culture flasks by treatment with Accutase™ cell detachment solution for 15 minutes. Flasks were incubated for 15 minutes in a humidified incubator at 37° C., 5% CO2. Detached cells were re-suspended in RPMI media (containing 10% (v/v) FBS and 2 mM L-glutamine) at 0.05×10^6 cells per mL. 5000 cells in 100 μL were added to each well of a tissue-culture-treated 96-well plate and the cells incubated overnight in a humidified incubator at 37° C., 5% CO2. The culture media was removed and cells were washed twice with 100 μL assay buffer and replaced with 50 μL assay buffer (HBSS solution containing 10 mM HEPES pH7.4 and 5 mM glucose). […] Cells were incubated with rolipram for 10 minutes after which time test compounds were added and the cells were incubated for 60 minutes at room temperature. […] The reaction was stopped by removing supernatants, washing once with 100 μL assay buffer and replacing with 50 μL lysis buffer. The cell monolayer was frozen at −80° C. for 30 minutes (or overnight).
The concentration of cAMP (cyclic adenosine monophosphate) in the cell lysate was determined using AlphaScreen™ methodology. The frozen cell plate was thawed for 20 minutes on a plate shaker then 10 μL of the cell lysate was transferred to a 96-well white plate. 40 μL of mixed AlphaScreen™ detection beads pre-incubated with biotinylated cAMP, was added to each well and the plate incubated at room temperature for 10 hours in the dark. The AlphaScreen™ signal was measured using an EnVision spectrophotometer (Perkin-Elmer Inc.) with the recommended manufacturer's settings. cAMP concentrations were determined by reference to a calibration curve determined in the same experiment using standard cAMP concentrations. Concentration response curves for agonists were constructed and data was fitted to a four parameter logistic equation to determine both the pEC50 and Intrinsic Activity.

[1] = biological target: T2, recombinant human α1D receptor (Homo sapiens, UniProt P25100); assay: Adrenergic α1D selectivity assay, inhibition of [3H]-prazosin binding; conditions: HEK293 membranes, [3H]-prazosin 0.3 nM; read-out: α1 bind pIC50 (converted)
T2 construct: expressed in transfected cells; host or cells: HEK293
T2 sequence (P25100 1-572): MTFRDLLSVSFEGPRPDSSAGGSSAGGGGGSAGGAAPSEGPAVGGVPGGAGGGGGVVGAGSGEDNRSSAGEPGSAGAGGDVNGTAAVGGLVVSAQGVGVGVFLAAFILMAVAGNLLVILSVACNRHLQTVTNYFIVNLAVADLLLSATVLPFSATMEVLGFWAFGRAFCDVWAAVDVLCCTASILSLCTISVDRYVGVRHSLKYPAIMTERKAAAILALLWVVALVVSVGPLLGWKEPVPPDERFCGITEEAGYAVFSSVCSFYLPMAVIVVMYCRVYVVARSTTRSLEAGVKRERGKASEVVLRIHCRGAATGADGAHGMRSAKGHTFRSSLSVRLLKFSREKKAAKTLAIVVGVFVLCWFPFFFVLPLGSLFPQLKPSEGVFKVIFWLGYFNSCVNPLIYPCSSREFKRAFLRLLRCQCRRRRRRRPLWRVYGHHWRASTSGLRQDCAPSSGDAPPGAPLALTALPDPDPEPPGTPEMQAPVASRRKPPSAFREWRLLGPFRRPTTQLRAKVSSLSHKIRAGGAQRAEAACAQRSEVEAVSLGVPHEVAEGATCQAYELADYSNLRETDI
Experimental: Membranes were prepared from human embryonic kidney 293 (HEK293) cells expressing recombinant human α1D receptor. These were diluted in Assay Buffer (50 mM HEPES, 1 mM EDTA, 0.1% gelatin, pH 7.4) to provide a final concentration of membranes that gave a clear window between maximum and minimum specific binding.
(§1) Assays were performed in U-bottomed 96-well polypropylene plates. 10 μL [^3H]-prazosin (0.3 nM final concentration) and 10 μL of test compound (10× final concentration) were added to each test well. For each assay plate 8 replicates were obtained for [^3H]-prazosin binding in the presence of 10 μL vehicle (10% (v/v) DMSO in Assay Buffer; defining maximum binding) or 10 μL BMY7378 (10 μM final concentration; defining non-specific binding (NSB)). Membranes were then added to achieve a final volume of 100 μL. The plates were incubated for 2 hours at room temperature and then filtered onto PEI coated GF/B filter plates, pre-soaked for 1 hour in Assay Buffer, using a 96-well plate Tomtec cell harvester. Five washes with 250 μL wash buffer (50 mM HEPES, 1 mM EDTA, pH 7.4) were performed at 4° C. to remove unbound radioactivity. The plates were dried then sealed from underneath using Packard plate sealers and MicroScint-O (50 μL) was added to each well. The plates were sealed (TopSeal A) and filter-bound radioactivity was measured with a scintillation counter (TopCount, Packard BioScience) using a 3-minute counting protocol.
(§2) Total specific binding (B0) was determined by subtracting the mean NSB from the mean maximum binding. NSB values were also subtracted from values from all other wells.

[2] = biological target: T3, recombinant human adrenergic beta 1 receptors (Homo sapiens, UniProt P08588); assay: Adrenergic β1 selectivity assay, inhibition of [125I]-Iodocyanopindolol binding
T3 construct: purchased Euroscreen
Experimental: (§3) Membranes containing recombinant human adrenergic beta 1 receptors were obtained from Euroscreen. These were diluted in Assay Buffer (50 mM HEPES, 1 mM EDTA, 120 mM NaCl, 0.1% gelatin, pH 7.4) to provide a final concentration of membranes that gave a clear window between maximum and minimum specific binding.
as §1, with “10 μL [^3H]-prazosin (0.3 nM final concentration) and 10 μL of test compound (10× final concentration) were added to each test well. For each assay plate 8 replicates were obtained for [^3H]-prazosin binding in the presence of 10 μL vehicle (10% (v/v) DMSO in Assay Buffer; defining maximum binding) or 10 μL BMY7378 (10 μM final concentration; defining non-specific binding (NSB)).” left out, “EDTA, 120 mM NaCl,” for “EDTA,”
as §2

[3] = biological target: T4, recombinant human Dopamine Subtype D2s receptors (Homo sapiens, UniProt P14416); assay: Dopamine D2 selectivity assay, inhibition of [3H]-spiperone binding; conditions: membranes, [3H]-spiperone 0.16 nM; read-out: D2 bind pIC50 (converted)
T4 construct: purchased Perkin Elmer
Experimental: as §3, with “human Dopamine Subtype D2s” for “human adrenergic beta 1”, “from Perkin Elmer.” for “from Euroscreen.”, “([…]” for “(50 mM”
Assays were performed in U-bottomed 96-well polypropylene plates. […] For each assay plate 8 replicates were obtained for [^3H]-spiperone binding in the presence of 30 μL vehicle (10% (v/v) DMSO in Assay Buffer; defining maximum binding) or 30 μL Haloperidol (10 μM final concentration; defining non-specific binding (NSB)). Membranes were then added to achieve a final volume of 300 μL. The plates were incubated for 2 hours at room temperature and then filtered onto PEI coated GF/B filter plates, pre-soaked for 1 hour in Assay Buffer, using a 96-well plate Tomtec cell harvester. Five washes with 250 μL wash buffer (50 mM HEPES, 1 mM EDTA, 120 mM NaCl, pH 7.4) were performed at 4° C. to remove unbound radioactivity. The plates were dried then sealed from underneath using Packard plate sealers and MicroScint-O (50 μL) was added to each well. The plates were sealed (TopSeal A) and filter-bound radioactivity was measured with a scintillation counter (TopCount, Packard BioScience) using a 3-minute counting protocol. Total specific binding (B0) was determined by subtracting the mean NSB from the mean maximum binding. NSB values were also subtracted from values from all other wells.

[4] = membranes, [125I]-Iodocyanopindolol, read-out: β1 bind pIC50 (converted)

T4 sequence (P14416 1-414 isoform P14416-2): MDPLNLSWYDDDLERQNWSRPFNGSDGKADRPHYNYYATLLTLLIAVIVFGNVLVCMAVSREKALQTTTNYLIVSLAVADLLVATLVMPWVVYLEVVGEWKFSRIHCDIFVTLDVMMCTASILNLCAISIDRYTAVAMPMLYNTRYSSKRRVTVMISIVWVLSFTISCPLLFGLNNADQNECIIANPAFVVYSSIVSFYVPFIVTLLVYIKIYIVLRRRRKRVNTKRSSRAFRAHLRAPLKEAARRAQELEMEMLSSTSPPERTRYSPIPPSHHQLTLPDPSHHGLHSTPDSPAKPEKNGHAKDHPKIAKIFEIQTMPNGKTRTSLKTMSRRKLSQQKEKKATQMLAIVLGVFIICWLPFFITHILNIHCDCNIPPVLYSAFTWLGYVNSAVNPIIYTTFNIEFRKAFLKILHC
T3 sequence (P08588 whole entry): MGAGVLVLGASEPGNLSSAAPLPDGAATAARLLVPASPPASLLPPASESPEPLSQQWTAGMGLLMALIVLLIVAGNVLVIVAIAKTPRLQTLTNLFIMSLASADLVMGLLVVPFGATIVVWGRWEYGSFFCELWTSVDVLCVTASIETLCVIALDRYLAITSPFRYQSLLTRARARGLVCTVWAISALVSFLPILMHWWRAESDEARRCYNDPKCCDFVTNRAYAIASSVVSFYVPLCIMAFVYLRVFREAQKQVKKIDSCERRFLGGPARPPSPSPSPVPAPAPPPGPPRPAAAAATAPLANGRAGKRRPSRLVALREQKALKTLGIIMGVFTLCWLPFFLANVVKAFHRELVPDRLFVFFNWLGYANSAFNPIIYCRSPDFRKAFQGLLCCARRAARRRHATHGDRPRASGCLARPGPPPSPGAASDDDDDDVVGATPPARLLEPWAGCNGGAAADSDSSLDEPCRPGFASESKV
T1 sequence (P07550 whole entry): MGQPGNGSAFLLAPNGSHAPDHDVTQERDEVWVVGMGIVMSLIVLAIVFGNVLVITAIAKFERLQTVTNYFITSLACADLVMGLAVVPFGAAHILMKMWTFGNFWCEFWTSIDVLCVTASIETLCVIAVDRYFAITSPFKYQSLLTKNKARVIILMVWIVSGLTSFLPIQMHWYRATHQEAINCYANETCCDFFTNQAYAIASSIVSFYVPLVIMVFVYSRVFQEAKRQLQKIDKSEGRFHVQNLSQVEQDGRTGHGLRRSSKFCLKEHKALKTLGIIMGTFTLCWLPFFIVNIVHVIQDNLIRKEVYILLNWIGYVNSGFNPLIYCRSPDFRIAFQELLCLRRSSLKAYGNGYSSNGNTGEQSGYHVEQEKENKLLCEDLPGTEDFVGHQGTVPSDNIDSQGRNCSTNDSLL

Row | Compound | EC50 (Adrenergic β2) [nM] | β2 Int Act (Adrenergic β2) | IC50 [1] [nM] | IC50 [2, 4] [nM] | IC50 [3] [nM] | IC50 [2] [nM]
1 | N[C@@H](COCCCSCCNC[C@H](O)c1ccc(O)c2[nH]c(=O)sc12)c1ccccc1 [Example 24, 7-((1R)-2-{[2-({3-[(2R)-2-Amino-2-phenylethoxy]propyl}thio)ethyl]amino}-1-hydroxyethyl)-4-hydroxy-1,3-benzothiazol-2(3H)-one] | 0.398 | 0.8 | 158 | 79.4 | 631 | –
2 | O=c1[nH]c2c(O)ccc([C@@H](O)CNCCSCCCNCCc3cccc(Cl)c3Cl)c2s1 [Example 38, 7-[(1R)-2-({2-[(3-{[2-(2,3-Dichlorophenyl)ethyl]amino}propyl)thio]ethyl}amino)-1-hydroxyethyl]-4-hydroxy-1,3-benzothiazol-2(3H)-one dihydrochloride] | 1.58 | 0.9 | 158 | – | 398 | –
3 | C[C@@H](CNCCSCCCNC[C@H](O)c1ccc(O)c2[nH]c(=O)sc12)c1ccccc1 [Example 27, 4-Hydroxy-7-[(1R)-1-hydroxy-2-({3-[(2-{[(2R)-2-phenylpropyl]amino}ethyl)thio]propyl}amino)ethyl]-1,3-benzothiazol-2(3H)-one] | 1 | 1 | 126 | 63.1 | 1000 | –
4 | C[C@@H](CNCCCSCCNC[C@H](O)c1ccc(O)c2[nH]c(=O)sc12)c1ccccc1 [Example 46, (R)-(+)-7-[(1R)-2-({2-[(3-{[2-(phenyl)propyl]amino}propyl)thio]ethyl}amino)-1-hydroxyethyl]-4-hydroxy-1,3-benzothiazol-2(3H)-one dihydrochloride] | 0.631 | 0.8 | 251 | 79.4 | 1260 | –
5 | C[C@H](CNCCCSCCNC[C@H](O)c1ccc(O)c2[nH]c(=O)sc12)c1ccccc1 [Example 48, (S)-(−)-7-[(1R)-2-({2-[(3-{[2-(phenyl)propyl]amino}propyl)thio]ethyl}amino)-1-hydroxyethyl]-4-hydroxy-1,3-benzothiazol-2(3H)-one dihydrochloride] | 1.26 | 0.9 | 1580 | 158 | 3980 | –
6 | C[C@H](CNCCSCCCNC[C@H](O)c1ccc(O)c2[nH]c(=O)sc12)c1ccccc1 [Example 29, 4-Hydroxy-7-[(1R)-1-hydroxy-2-({3-[(2-{[(2S)-2-phenylpropyl]amino}ethyl)thio]propyl}amino)ethyl]-1,3-benzothiazol-2(3H)-one] | 0.316 | 0.9 | 100 | 25.1 | 3980 | –
7 | CC(CNCCCSCCNC[C@H](O)c1ccc(O)c2[nH]c(=O)sc12)c1ccccc1 (mixture of isomers) [Example 44, (+/−)-7-[(1R)-2-({2-[(3-{[2-(phenyl)propyl]amino}propyl)thio]ethyl}amino)-1-hydroxyethyl]-4-hydroxy-1,3-benzothiazol-2(3H)-one dihydrochloride] | 0.631 | 0.8 | 398 | 79.4 | 12600 | –
8 | O=c1[nH]c2c(O)ccc([C@@H](O)CNCCCSCCNCCc3ccccc3Cl)c2s1 [Example 31, 7-[(1R)-2-({3-[(2-{[2-(2-Chlorophenyl)ethyl]amino}ethyl)thio]propyl}amino)-1-hydroxyethyl]-4-hydroxy-1,3-benzothiazol-2(3H)-one] | 0.398 | 0.8 | 12.6 | 39.8 | 1580 | –
9 | O=c1[nH]c2c(O)ccc([C@@H](O)CNCCS(=O)(=O)CCCNCCc3cccc(Cl)c3)c2s1 [Example 42, 7-[(1R)-2-({2-[(3-{[2-(3-Chlorophenyl)ethyl]amino}propyl)sulfonyl]ethyl}amino)-1-hydroxyethyl]-4-hydroxy-1,3-benzothiazol-2(3H)-one dihydrochloride] | – | 1 | 126 | – | 10000 | 794
